Literature values in the CATMoS acute toxicity set (Mansouri et al. 2021).
Values joined by “and” are separate entries in the source; they are usually repeats but may differ in a detail not shown here. Identical values can stand only once.

Test: rat acute oral toxicity
Conditions: in vivo

SMILES	LD50
CC(=O)CCc1ccc(O)cc1	1320 mg/kg
CCC1(CC)C(=O)C=CNC1=O	780 mg/kg
C=CCOC(=O)CC1CCCCC1	900 mg/kg
CC1=CC(=O)C(C)=C(C)C1=O	200 mg/kg
CCOP(=S)(OCC)SCC	80 mg/kg
NC(Cc1ccc(N(CCCl)CCCl)cc1)C(=O)O (centres undefined)	52 mg/kg and 105 mg/kg
CN(C)C(=O)Nc1ccc(Cl)cc1	1050 mg/kg
CC(=O)OC1CCCCC1	6730 mg/kg
O=C(CF)Nc1ccc(-c2ccccc2)cc1	10 mg/kg
CCCOP(=S)(OC)SCN1C(=O)c2ccccc2C1=O (centres undefined)	90 mg/kg
CCCCCCCCCc1cccc(OCCOCC(=O)O)c1	880 mg/kg
CCC1(c2ccccc2)C(=O)N=C(O)NC1=O (centres undefined)	150 mg/kg
CC(CC1CCCCC1)NCCC(c1ccccc1)c1ccccc1 (centres undefined)	1550 mg/kg
CCCCC(CC)COC(=O)C=CC(=O)OCC(CC)CCCC (centres undefined)	29200 mg/kg and 14000 mg/kg
CNC(C)CC1CCCC1 (centres undefined)	169 mg/kg
CCOC(=O)N1CC=Cc2ccccc21	195 mg/kg
COc1ccc2c(c1)[C@@]13CCCC[C@H]1[C@@H](C2)N(C)CC3	242 mg/kg
CN(C)P1(=S)OCc2cc([N+](=O)[O-])ccc2O1 (centres undefined)	125 mg/kg
O=C(CCCN1CCC(O)(c2ccc(Cl)c(C(F)(F)F)c2)CC1)c1ccc(F)cc1	195 mg/kg
O=[N+]([O-])c1cncn1CCN1CCOCC1	1540 mg/kg
O=C1CN=C(c2ccccc2F)c2cc(Cl)ccc2N1CC1CC1	10100 mg/kg
NC(=S)Nc1ccc(Cl)cc1	15 mg/kg
CC1(C)S[C@@H]2[C@H](NC(=O)C(C(=O)O)c3ccsc3)C(=O)N2[C@H]1C(=O)O (some centres undefined)	16000 mg/kg
CCCCOC(=O)C1CCC(C(=O)OCCCC)C1 (centres undefined)	6500 mg/kg
CCOC(=O)C=CC(=O)OCC	3200 mg/kg

SMILES	LD50
O=C1CCCO1	1540 mg/kg
O=C1CCC(=O)N1	14000 mg/kg
O=C(OC1CC2CCC(C1)[N+]21CCCC1)C(O)(c1ccccc1)c1ccccc1 (centres undefined)	1500 mg/kg
CC(C)(C=O)CO	3200 mg/kg
CC(C)=CCC/C(C)=C\CO	4500 mg/kg
CC(C(=O)O)c1ccc2c(c1)CC(=O)c1ccccc1S2 (centres undefined)	425 mg/kg
CC(=O)OC1c2c(ccc3ccc(=O)oc23)OC(C)(C)C1OC(=O)C=C(C)C (centres undefined)	832 mg/kg
O=C(O)c1cc(O)nc(O)n1	10900 mg/kg
CO[Si](CCCNCCC[Si](OC)(OC)OC)(OC)OC	3780 mg/kg
Nc1nc(N)c2cc(N(Cc3ccc(Cl)c(Cl)c3)N=O)ccc2n1	317 mg/kg
CN1C(=O)CCS(=O)(=O)C1c1ccc(Cl)c(Cl)c1 (centres undefined)	1050 mg/kg
CNC(=O)Oc1ccccc1C1OCC(C)O1 (centres undefined)	110 mg/kg
CCN(CC)CCNC(=O)c1cc([N+](=O)[O-])c(N(C)C)cc1OC	856 mg/kg
CCOP(=O)(O)C(N)=O	10100 mg/kg
COC(C=Cc1ccccc1)OC	3700 mg/kg
CCCCCCCCOC(CBr)c1ccc(C(C)(C)C)cc1 (centres undefined)	250 mg/kg
CNC(=O)N(O)c1ccccc1	3400 mg/kg
CN(C)C(=S)SSC(=S)N(C)C	560 mg/kg
CN1CCCCC1CCN1c2ccccc2Sc2ccc(Cl)cc21 (centres undefined)	1200 mg/kg
CCOCc1cnc(C)nc1N	1450 mg/kg
O=S(=O)(O)c1cc(O)ccc1O	7500 mg/kg
CN(C)C(=O)SCCCCOc1ccccc1	1150 mg/kg
CCCCCCCCOS(=O)(=O)O	3200 mg/kg
C[N+](C)(C)CCBr	190 mg/kg
O=C(O)Cc1ccccc1Oc1c(Cl)c(Cl)cc(Cl)c1Cl	303 mg/kg

SMILES	LD50
CON=Cc1ccc(OCC(O)(Cn2cncn2)C(C)(C)C)cc1 (centres undefined)	921 mg/kg
CC/C=C\CCO	4700 mg/kg
COc1ccc2cc(C(C)C(=O)OCCO)ccc2c1 (centres undefined)	1720 mg/kg
C=CCOc1ccccc1C(=O)NC1CCCCC1	1200 mg/kg
O=C1c2ccccc2C(=O)C1c1c(Cl)cccc1Cl	470 mg/kg
[SiH3]CCCCC(Cl)(Cl)Cl	2340 mg/kg
CCC(C)C(C)(COC(N)=O)COC(N)=O (centres undefined)	1160 mg/kg
OC(CCl)CN1CCCN(CC(O)CCl)c2ccccc21 (centres undefined)	750 mg/kg
CC(=O)CCC=C(C)C	3500 mg/kg
N#CCCNc1ccccc1	4700 mg/kg
Cc1nc(N)sc1C(=O)Nc1ccccc1	1410 mg/kg
CC(C)OP(=O)(OC(C)C)SCc1ccccc1	550 mg/kg
C1CSCCO1	2830 mg/kg
COc1cc2nc(N3CCC(N(C)C(=O)c4ccccc4)CC3)nc(N)c2cc1OC	1000 mg/kg
CC(C)(C)NCC(O)CSc1nc(-c2ccc(C(N)=O)s2)cs1 (centres undefined)	86 mg/kg
O=C(CS)OCCOC(=O)CS	330 mg/kg
CCN(CC)CCN(C)n1cc(-c2ccccc2)c2ccccc21	650 mg/kg
CC(C)(C)NCC(O)COc1ccccc1OCC1CCCO1 (centres undefined)	1090 mg/kg
CC1(C)CC(=O)C(N)C(C)(C)N1 (centres undefined)	920 mg/kg
COc1ccccc1-c1ccccc1	3600 mg/kg
CCCCOCCOCCCC	3250 mg/kg
CC(C(=O)O)c1ccc2oc(-c3ccc(Cl)cc3)nc2c1 (centres undefined)	118 mg/kg
COc1cc(Cc2cnc(N)nc2N)cc(OC)c1N(C)C	1400 mg/kg
C=CC[N@@+]12CC[C@@]34c5ccccc5N5C=C6[C@H]7C[C@H]8[C@@]9(CC[N@@+]8(CC=C)C/C7=C/CO)c7ccccc7N(C=C([C@@H](C[C@@H]31)/C(=C\CO)C2)[C@H]54)[C@@H]69	27.6 mg/kg
